Test results reported in PMC11521309, “A novel 4-aminoquinoline chemotype with multistage antimalarial activity and lack of cross-resistance with PfCRT and PfMDR1 mutants” (PLOS Pathogens, 2024).
Several values for one entry are separate records, joined by “and”; a condition that tells them apart may be missing. Identical values can stand only once.

How the values were obtained:
P. falciparum Dd2^M343L = system: P. falciparum Dd2^M343L; parameters: key to Phenotype, Dd2^M343L: S: sensitive; R: resistant; details: cited from earlier work
P. falciparum Dd2^G353V = system: P. falciparum Dd2^G353V; parameters: key to Phenotype, Dd2^G353V: S: sensitive; R: resistant; details: cited from earlier work
[1] = MTT cytotoxicity assay, 72 h; type: cell-based, monkey; details: monkey, COS-7 cells; MTT, 72 h, N = 3
Method: (§1) Human hepatoma (HepG2) and fibroblast-like monkey kidney cells (COS-7) were cultured in Dulbecco’s Modified Eagle Medium supplemented with 10% heat-inactivated fetal bovine serum and gentamycin (40 mg/L) at 37°C in a 5% CO2 atmosphere. Cytotoxicity of test compounds was measured by metabolic reduction of mitochondrial enzymes using the MTT assay (3-[4,5-dimethyl-thiazol-2-yl]-2,5-diphenyltetrazolium chloride). Cells were seeded at 10^5 cells/well in 96-well plates and incubated for 72 hours in the presence of a 2-fold 12-point serial dilution of drugs along with drug-free controls. After adding 15 μL of MTT (5 mg/mL) to the wells, plates were centrifuged at 317g for 5 minutes and the pellet was resuspended in isopropanol. Absorbance was measured at 570 nm (CLARIOStar, Labtech BMG). Cell viability was determined by formazan production, and was expressed as a percentage of untreated control wells.

COS-7 cells = experiment: MTT cytotoxicity assay, 72 h; type: cell-based, monkey
Method: as §1

[2] = system: P. falciparum NF54-Pfs16-GFP-Luc stage IV-V gametocytes; experiment: Mature gametocyte (stages IV-V) viability, luciferase, 48 h; type: cell-based, Plasmodium falciparum; details: 5 μM
Method: P. falciparum NF54-Pfs16-GFP-Luc (MRA-1217), a highly gametocyte-producing strain, was cultured following standard procedures. NF54-Luc ABS parasites were sorbitol-synchronized as previously described and cultured to reach 8–10% parasitemia as mature trophozoites prior to starting gametogenesis induction via nutrient deficit stress. Briefly, stress was induced by replacing only 40% of the culture medium and returning cultures to a 37°C incubation. Cultures were treated with 50 mM N-acetylglucosamine for 10 days to remove ABS parasites. Mature gametocytes (stages IV-V) were isolated using magnetic columns and incubated at 2% gametocytemia and 1.5% hematocrit in 96-well plates containing the test compounds for 48 hours at 37°C, following standard P. falciparum culturing conditions. Methylene blue was used as a gametocytocidal control alongside drug-free wells. Luciferase activity was assessed by adding 40 μL of luciferin substrate (Promega) to 40 μL of parasite lysates and detecting bioluminescence at an integration constant of 10s with the BioTek Cytation 5 Cell Imaging Multimode Reader.

[3] = MTT cytotoxicity assay, 72 h; type: cell-based, Human; details: human, HepG2 cells; MTT, 72 h, N = 3
Method: as §1

HepG2 cells = experiment: MTT cytotoxicity assay, 72 h; type: cell-based, Human
Method: as §1

[4] = system: P. falciparum Dd2-Polδ parent culture; experiment: ABS susceptibility after resistance selection, parental line; type: cell-based, Plasmodium falciparum; details: for % Parasite survival: Dd2 Pol D parent, rep 1-5
Method: (§2) P. falciparum ABS parasites were cultured at 3% hematocrit in human O^+ RBCs in RPMI-1640 media supplemented with 25 mM HEPES, 50 mg/L hypoxanthine, 2 mM L-glutamine, 0.21% sodium bicarbonate, 0.5% (w/v) AlbuMAXII (Invitrogen) and 10 μg/mL gentamycin. Culture flasks were kept in modular incubator chambers (Billups-Rothenberg) in a 5% O2, 5% CO2, and 90% N2 atmosphere at 37°C. Synchronized ring-stage parasites were obtained by two consecutive rounds of treatment with 5% D-sorbitol in 48-hour intervals. […] This was done by exposing cultures at 1% hematocrit and 0.3% parasitemia in 96-well plates in the presence of drugs in a two-fold 10 or 12-point serial dilution in duplicate along with drug-free controls. After a 72-hour incubation, parasite survival was assessed by flow cytometry on an iQue flow cytometer (Sartorius) using SYBR Green and MitoTracker Deep Red FM (Life Technologies) as nuclear stain and vital dye, respectively. Parasite survival was determined as a percentage relative to drug-free control. IC50 values were interpolated from log concentration versus response curves in Prism 9 (GraphPad Prism Software Inc.).
(§3) Resistance to LDT-623 was assessed using single-step in vitro resistance selection protocols. […] Dd2-Pol δ is a hypermutable line with two point mutations in DNA polymerase δ that compromise its proofreading activity Cultures were monitored daily by thin blood smears until live parasites were no longer detectable. Drug-containing media was changed daily until parasites cleared, and every other day thereafter. Cultures were passaged once weekly by reducing the volume by 25% and replacing 1/3 of RBCs. Recrudescence monitoring was carried out twice a week by thin blood smears for 60 days. In the event of recrudescence, parasite susceptibility to LDT-623 was tested as described above.

[5] = system: P. falciparum Dd2-Polδ Flask 2; experiment: ABS susceptibility after resistance selection, recrudescent line; type: cell-based, Plasmodium falciparum; details: for % Parasite survival: Dd2 Pol D Flask 2, rep 1-5
Method: as §2, §3

[6] = system: P. falciparum Dd2-Polδ Flask 1; experiment: as above; type: cell-based, Plasmodium falciparum; details: for % Parasite survival: Dd2 Pol D Flask 1, rep 1-5
Method: as §2, §3

SMILES: CCN(CC)CCCC(C)Nc1ccnc2cc(Cl)ccc12 (centres unmarked) [CQ, chloroquine]
- IC50 (P. falciparum Dd2^M343L; Dd2M343L, mean ± SEM, ref 1 (Ross et al., 2018)): 41.8 ± 1.9 nM
- Phenotype, Dd2^M343L (P. falciparum Dd2^M343L; ref [19],[20],[51]): R
- IC50 (P. falciparum Dd2^G353V; Dd2G353V, mean ± SEM, ref 1 (Ross et al., 2018)): 54.6 ± 4.9 nM
- Phenotype, Dd2^G353V (P. falciparum Dd2^G353V; ref [19],[20],[51]): S

SMILES: COc1cc2nccc(Nc3cccc(Oc4ccccc4)c3)c2cc1OC [LDT-623]
- CC50 at 72 h [1]: 500 ± 100 nM
- SI (CC50 COS-7 / IC50 3D7) (COS-7 cells): 3.8
- % Inhibition of viability, mature gametocytes ([2]; mean, N = 3): 62% and 61.67%
- % Inhibition of viability, mature gametocytes ([2]; single replicates): 78.00% and 67.00% and 40.00%
- CC50 at 72 h [3]: 1300 ± 100 nM
- SI (CC50 HepG2 / IC50 3D7) (HepG2 cells): 10
- mean AUC of survival curve ([4]; Dd2-Polδ parent culture): 35.4
- % Parasite survival ([4]; 0.09 uM): 76.35% and 85.80% and 91.78% and 97.25%
- % Parasite survival ([4]; 0.19 uM): 89.20% and 72.57% and 70.57% and 79.41% and 83.99%
- % Parasite survival ([4]; 25 uM): 0.00% and 0.89%
- % Parasite survival ([4]; 50 uM): 0.00% and 1.83%
- % Parasite survival ([5]; 0.09 uM): 88.00% and 80.84% and 100.00% and 86.03%
- % Parasite survival ([5]; 0.19 uM): 82.04% and 70.05% and 89.31% and 86.03% and 100.00%
- % Parasite survival ([5]; 0.78 uM): 0.00% and 7.11% and 0.21%
- % Parasite survival ([5]; 1.56 uM): 1.80% and 2.03% and 1.07% and 0.00%
- % Parasite survival ([5]; 3.12 uM): 7.60% and 5.20% and 3.53% and 0.39% and 7.52%
- % Parasite survival ([5]; 25 uM): 0.00% and 7.74% and 3.09%
- % Parasite survival ([5]; 50 uM): 0.00% and 5.80%
- mean AUC of survival curve ([5]; recrudescent parasites, Flask 2): 22.3
- % Parasite survival ([6]; 0.09 uM): 100.00% and 83.53% and 90.04% and 99.83%
- % Parasite survival ([6]; 0.19 uM): 92.44% and 73.57% and 80.08% and 80.97% and 100.00%
- % Parasite survival ([6]; 0.78 uM): 0.00%
- % Parasite survival ([6]; 1.56 uM): 0.00% and 1.04%
- % Parasite survival ([6]; 50 uM): 0.00% and 0.35%
- mean AUC of survival curve ([6]; recrudescent parasites, Flask 1): 53.8
